According to patent US6365759B1, “Intermediate compounds for preparing macrocylcic analogs” (Eisai Co., Ltd., priority 1998, dated 2002):
Where two headings read alike, the source gives them in different places.

Legend:
[1] = system: DLD-1 human colon cancer cells; assay: in vitro cell growth inhibition assay using DLD-1 cells; format: cell-based
[2] = system: U937 human histiocytic lymphoma cells; assay: U937 Mitotic Block Reversibility Assay; format: cell-based
[3] = system: LOX human melanoma tumor xenograft; assay: LOX melanoma xenograft growth inhibition assay; format: in vivo, mouse; conditions: FIG. 3
Experimental: FIG. 3 is a graph showing the average tumor volume in microliters as a function of time (days) in a LOX melanoma xenograft growth inhibition assay. […] Paclitaxel and a vehicle control were used.
Many of the individually disclosed drugs were tested for in vitro and in vivo activity (see Table 1, below). Screening methods included a standard in vitro cell growth inhibition assay using DLD-1 human colon cancer cells (ATCC accession number CCL 221) in a 96-well microtiter plate format (Finlay, G. J. et al Analytical Biochemistry 139:272-277, 1984), a U937 (ATCC accession number CRL 1593) mitotic block reversibility assay (described below), and in some cases, a LOX human melanoma tumor xenograft in vivo growth inhibition assay (see Table 1). Chemical stability to esterase degradation was also examined.

Compound: C=C1CC2CCC34CC5OC6C(O3)C3OC(CCC3O[C@H]6C5O4)CC(=O)CC3C(CC4OC(CCC1O2)CC(C)C4=C)OC(CC(O)CN)C3OC (stereo partly shown) [Compound B1939]
- IC50 ([1]; Homo sapiens, DLD-1, read-out: DLD-1 mean IC50): 19.3 nM
- Complete Mitotic Block 0 hour [2]: 12 nM
- Complete Mitotic Block 10 hour [2]: 12 nM
- Reversibility Ratio [2]: 1.0
- minimum concentration required for complete mitotic block at 0 hour [2]: 10 nM
- minimum concentration required for complete mitotic block at 10 hour [2]: 10 nM
- reversibility ratio [2]: 1
- viability of cells at 5 days [2]: drops to very low levels
- antitumor activity (average tumor volume over time) [3]: antitumor activity

Compound: C=C1CC2CCC34CC5OC6C(OC7CCC(CC(=O)CC8C(CC9OC(CCC1O2)CC(C)C9=C)OC(CC(O)CNC(C)(C)C)C8OC)OC7C6O3)C5O4 (stereo not shown) [Compound B2339]
- IC50 ([1]; read-out: DLD-1 mean IC50): 4.3 nM
- Complete Mitotic Block 0 hour [2]: 3 nM
- Complete Mitotic Block 10 hour [2]: 3 nM
- Reversibility Ratio [2]: 1.0

Compound: C=C1CC2CCC34CC5OC6C(OC7CCC(CC(=O)CC8C(CC9OC(CCC1O2)CC(C)C9=C)OC(CC(O)CNCCO)C8OC)OC7C6O3)C5O4 (stereo not shown) [Compound B2417]
- IC50 ([1]; read-out: DLD-1 mean IC50): 12.7 nM
- Complete Mitotic Block 0 hour [2]: 10 nM
- Complete Mitotic Block 10 hour [2]: 10 nM
- Reversibility Ratio [2]: 1.0

Compound: C=C1CC2CCC34CC5OC6C(OC7CCC(CC(=O)CC8C(CC9OC(CCC1O2)CC(C)C9=C)OC(CC(O)CN1CCNCC1)C8OC)OC7C6O3)C5O4 (stereo not shown) [Compound B2418]
- IC50 ([1]; read-out: DLD-1 mean IC50): 3.63 nM
- Complete Mitotic Block 0 hour [2]: 10 nM
- Complete Mitotic Block 10 hour [2]: 10 nM
- Reversibility Ratio [2]: 1.0

Compound: C=C1CC2CCC34CC5OC6C(OC7CCC(CC(=O)CC8C(CC9OC(CCC1O2)CC(C)C9=C)OC(CC(O)CN(CCO)CCO)C8OC)OC7C6O3)C5O4 (stereo not shown) [Compound B2489]
- IC50 ([1]; read-out: DLD-1 mean IC50): 14.7 nM
- Complete Mitotic Block 0 hour [2]: 10 nM
- Complete Mitotic Block 10 hour [2]: 10 nM
- Reversibility Ratio [2]: 1.0

Compound: C=C1CC2CCC34CC5OC6C(OC7CCC(CC(=O)CC8C(CC9OC(CCC1O2)CC(C)C9=C)OC(CC(O)CNC(CO)CO)C8OC)OC7C6O3)C5O4 (stereo not shown) [Compound B2490]
- IC50 ([1]; read-out: DLD-1 mean IC50): 35.7 nM
- Complete Mitotic Block 0 hour [2]: 100 nM
- Complete Mitotic Block 10 hour [2]: 100 nM
- Reversibility Ratio [2]: 1.0

Compound: C=C1CC2CCC34CC5OC6C(OC7CCC(CC(=O)CC8C(CC9OC(CCC1O2)CC(C)C9=C)OC(CC(O)CNCc1ccccc1)C8OC)OC7C6O3)C5O4 (stereo not shown) [Compound B2491]
- IC50 ([1]; read-out: DLD-1 mean IC50): 0.92 nM
- Complete Mitotic Block 0 hour [2]: 2 nM
- Complete Mitotic Block 10 hour [2]: 10 nM
- Reversibility Ratio [2]: 6.7

Compound: C=C1CC2CCC34CC5OC6C(OC7CCC(CC(=O)CC8C(CC9OC(CCC1O2)CC(C)C9=C)OC(CC(O)CN1CCCCC1)C8OC)OC7C6O3)C5O4 (stereo not shown) [ER803834]
- IC50 ([1]; read-out: DLD-1 mean IC50): 0.47 nM
- Complete Mitotic Block 0 hour [2]: 1 nM
- Complete Mitotic Block 10 hour [2]: 10 nM
- Reversibility Ratio [2]: 10.0

Compound: C=C1CC2CCC34CC5OC6C(OC7CCC(CC(=O)CC8C(CC9OC(CCC1O2)CC(C)C9=C)OC(CC(O)CN1CCCC1)C8OC)OC7C6O3)C5O4 (stereo not shown) [ER803835]
- IC50 ([1]; read-out: DLD-1 mean IC50): 15.3 nM
- Complete Mitotic Block 0 hour [2]: 10 nM
- Complete Mitotic Block 10 hour [2]: 10 nM
- Reversibility Ratio [2]: 1.0

Compound: C=C1CC2CCC34CC5OC6C(OC7CCC(CC(=O)CC8C(CC9OC(CCC1O2)CC(C)C9=C)OC(CC(O)CN1CC[C@@H](O)C1)C8OC)OC7C6O3)C5O4 (stereo partly shown) [ER803836]
- IC50 ([1]; read-out: DLD-1 mean IC50): 1.97 nM
- Complete Mitotic Block 0 hour [2]: 3 nM
- Complete Mitotic Block 10 hour [2]: 10 nM
- Reversibility Ratio [2]: 3.3

Compound: C=C1CC2CCC34CC5OC6C(OC7CCC(CC(=O)CC8C(CC9OC(CCC1O2)CC(C)C9=C)OC(CC(O)CN1CCCCCC1)C8OC)OC7C6O3)C5O4 (stereo not shown) [ER803843]
- IC50 ([1]; read-out: DLD-1 mean IC50): 0.49 nM
- Complete Mitotic Block 0 hour [2]: 1 nM
- Complete Mitotic Block 10 hour [2]: 10 nM
- Reversibility Ratio [2]: 10.0

Compound: C=C1CC2CCC34CC5OC6C(OC7CCC(CC(=O)CC8C(CC9OC(CCC1O2)CC(C)C9=C)OC(CC(O)CNCc1ccc(OC)cc1)C8OC)OC7C6O3)C5O4 (stereo not shown) [ER803845]
- IC50 ([1]; read-out: DLD-1 mean IC50): 1.5 nM
- Complete Mitotic Block 0 hour [2]: 3 nM
- Complete Mitotic Block 10 hour [2]: 10 nM
- Reversibility Ratio [2]: 3.3

Compound: C=C1CC2CCC34CC5OC6C(OC7CCC(CC(=O)CC8C(CC9OC(CCC1O2)CC(C)C9=C)OC(CC(O)CNCCc1ccccc1)C8OC)OC7C6O3)C5O4 (stereo not shown) [ER803846]
- IC50 ([1]; read-out: DLD-1 mean IC50): 1.16 nM
- Complete Mitotic Block 0 hour [2]: 1 nM
- Complete Mitotic Block 10 hour [2]: 10 nM
- Reversibility Ratio [2]: 10.0

Compound: C=C1CC2CCC34CC5OC6C(OC7CCC(CC(=O)CC8C(CC9OC(CCC1O2)CC(C)C9=C)OC(CC(O)CN1CCC[C@H]1CO)C8OC)OC7C6O3)C5O4 (stereo partly shown) [ER803851]
- IC50 ([1]; read-out: DLD-1 mean IC50): 3.33 nM
- Complete Mitotic Block 0 hour [2]: 3 nM
- Complete Mitotic Block 10 hour [2]: 3 nM
- Reversibility Ratio [2]: 1.0

Compound: C=C1CC2CCC34CC5OC6C(OC7CCC(CC(=O)CC8C(CC9OC(CCC1O2)CC(C)C9=C)OC(CC(O)CN1CCC[C@@H]1CO)C8OC)OC7C6O3)C5O4 (stereo partly shown) [ER803852]
- IC50 ([1]; read-out: DLD-1 mean IC50): 3.03 nM
- Complete Mitotic Block 0 hour [2]: 3 nM
- Complete Mitotic Block 10 hour [2]: 10 nM
- Reversibility Ratio [2]: 3.3

Compound: C=C1CC2CCC34CC5OC6C(OC7CCC(CC(=O)CC8C(CC9OC(CCC1O2)CC(C)C9=C)OC(CC(O)CN1CCOCC1)C8OC)OC7C6O3)C5O4 (stereo not shown) [ER803868]
- IC50 ([1]; read-out: DLD-1 mean IC50): 0.43 nM
- Complete Mitotic Block 0 hour [2]: 3 nM
- Complete Mitotic Block 10 hour [2]: 10 nM
- Reversibility Ratio [2]: 3.3

Compound: C=C1CC2CCC34CC5OC6C(OC7CCC(CC(=O)CC8C(CC9OC(CCC1O2)CC(C)C9=C)OC(CC(O)CNCC)C8OC)OC7C6O3)C5O4 (stereo not shown) [ER803869]
- IC50 ([1]; read-out: DLD-1 mean IC50): 4.13 nM
- Complete Mitotic Block 0 hour [2]: 3 nM
- Complete Mitotic Block 10 hour [2]: 3 nM
- Reversibility Ratio [2]: 1.0

Compound: C=C1CC2CCC34CC5OC6C(OC7CCC(CC(=O)CC8C(CC9OC(CCC1O2)CC(C)C9=C)OC(CC(O)Cn1ccnc1)C8OC)OC7C6O3)C5O4 (stereo not shown) [ER803870]
- IC50 ([1]; read-out: DLD-1 mean IC50): 1.27 nM
- Complete Mitotic Block 0 hour [2]: 3 nM
- Complete Mitotic Block 10 hour [2]: 30 nM
- Reversibility Ratio [2]: 10.0

Compound: C=C1CC2CCC34CC5OC6C(OC7CCC(CC(=O)CC8C(CC9OC(CCC1O2)CC(C)C9=C)OC(CC(O)CN(CC)CC)C8OC)OC7C6O3)C5O4 (stereo not shown) [ER803883]
- IC50 ([1]; read-out: DLD-1 mean IC50): 1.02 nM
- Complete Mitotic Block 0 hour [2]: 1 nM
- Complete Mitotic Block 10 hour [2]: 10 nM
- Reversibility Ratio [2]: 10.0

Compound: C=C1CC2CCC34CC5OC6C(OC7CCC(CC(=O)CC8C(CC9OC(CCC1O2)CC(C)C9=C)OC(CC(O)CNCc1ccc(Cl)cc1)C8OC)OC7C6O3)C5O4 (stereo not shown) [ER803884]
- IC50 ([1]; read-out: DLD-1 mean IC50): 0.59 nM
- Complete Mitotic Block 0 hour [2]: 1 nM
- Complete Mitotic Block 10 hour [2]: 10 nM
- Reversibility Ratio [2]: 10.0
